Source: patent US4820873A, “Pyrene derivatives” (priority 1984, dated 1989)
Structures can show the parent of a compound that is named as a salt.

Columns and labels:
LD20 in the P388/0 test = type: in vivo, CD2-F1 mice; details: intraperitoneal, days 1, 5, 9, doses are on a mg/kg basis; for MTD: mouse, in vivo, ip, read-out: highest nontoxic dose (LD20 column, values in parentheses; LD20 was not determined)
Procedure: (§1) CD2-F1 mice, of the same sex, weighing 20±3 g, are used for this test. Control and test animals are injected intraperitoneally with a suspension of ~10^6 viable P388/0 tumor cells on day 0. In each test, several dose levels which bracket the LD20 of the compound are evaluated; each dose level group contains 6 animals. The test compounds are prepared either in physiologic saline containing 0.05% Tween 80 or distilled water containing 5% dextrose and are administered intraperitoneally on days 1, 5, and 9 relative to tumor implant. Doses are on a mg/kg basis according to individual animals' body weights. The day of death for each animal is recorded, the median identified for each group and the ratios of median survival time for treated (T)/control (C) groups are calculated. The criterion for activity is T/C×100≥120%.

P388/0 tumor cells = experiment: Lymphocytic Leukemia P388/0 Test; type: in vivo, CD2-F1 mice; details: median survival time; intraperitoneal, days 1, 5, 9; active if ≥120%; Optimal Dose (mg/kg): 2A 250; 2B 450; 3 120; 4 200; 5A 303; 6 366; 7 220; 8 300; 1A 300; 10 198; 11 300; 13 220; 15 555; 16 1013; 17B 250; 18 300; 19 40; 20G 125; 21C 168; 22D 180; 23B 18O
Excerpt: (§2) Methods for evaluating the antitumor activity of these compounds are essentially those used in the Tumor Panel by the Development Therapeutics Program, Division of Cancer Treatment, National Cancer Institute, A. Goldin, et al., Methods in Cancer Research, Vol. XVI, p. 165, Academic Press (1979). Some modifications in dose level and schedule have been made to increase the testing efficiency.
as §1

[1] = test system: Mycoplasma smegmatis (S3264); experiment: Antibacterial screening, Mycoplasma smegmatis, agar dilution assay; type: cell-based
Excerpt: (§3) Antibacterial testing against Mycoplasma smegmatis (S3264) and Streptococcus pyogens (CN10) was done with slight modifications using standard agar dilution assays as outlined in Manual of Clinical Microbiology, Second Ed., E. H. Lennette, E. H. Spaulding and J. P. Truant Eds., American Society for Microbiology, Washington, DC, 1974.

L1210 cells = experiment: Lymphocytic Leukemia L1210 Test; type: in vivo, CD-2-F1 mouse; details: 150 mg/kg; protocol as P388/0 (intraperitoneal, days 1, 5, 9); active if ≥125%
Excerpt: as §2, §1
The protocol for this test is identical to that for P388/0, except that the number of L1210 cells implanted on day 0 is ~105/mouse. […]

[2] = test system: Nippostrongylus brasiliensis (Immature - free living stages); experiment: Anthelmintic screening, Nippostrongylus brasiliensis; type: cell-based
Excerpt: Anthelmintic testing against Nippostrongylus brasiliensis was done using methods as outlined in D. C. Jenkins, R. Armitage, and T. S. Carrington, Zetschrift fur Parasitenkunde 63, 261-269 (1980).

[3] = test system: Candida albicans (CN1863); experiment: Antifungal screening, Candida albicans, broth and agar dilution assays; type: cell-based; details: Medium: Wellcotest sensitivity test agar plus 7% lysed horse blood
Excerpt: Antifungal testing against Candida albicans (CN1863) was done with slight modifications using a combination of broth and agar dilution assays as outlined in Laboratory Handbook of Medical Mycology, Chapter 6, pages 441-446, M. R. McGinnis, Academic Press, New York, NY, 1980.
Medium: Wellcotest* sensitivity test agar plus 7% lysed horse blood.

LD50 Tests = details: in vivo; IP single dose - CD1 Male Mouse
Excerpt: |(IP single dose - CD1 Male Mouse)

Trichomonas vaginalis = experiment: Antiprotozoal testing, Trichomonas vaginalis (in vitro); type: cell-based; details: 40 mg/L, Stenton or Modified Diamond's medium, read-out: Result (screen code, inhibition)
Excerpt: Antiprotozoal testing against Trichomonas vaginalis was done using methods outlined by R. M. Michaels in Advances in Chemotherapy, 3, 39-108 (1968).
(Stenton or Modified Diamond's medium)

Lewis Lung Carcinoma = Lewis Lung Carcinoma Test; type: in vivo, mouse (BD-F1 mice; tumor from C57B1/6 mouse); details: 150 mg/kg; administered as in P388/0 protocol; active if ≥140%
Excerpt: as §2
This tumor arose spontaneously in the lung of a C57B1/6 mouse and is maintained by subcutaneous passage in that strain. The solid tumor is excised aseptically and placed in sterile saline. Pieces of viable tumor tissue are minced finely with scissors and forced through a 200 mesh stainless steel screen to disaggregate the tumor cells into a suspension. 10^6 Viable cells and injected intravenously into the tail vein of BD-F1, mice of the same sex weighing 20±3 g. In each test, several dose levels which bracket the LD20 for the compound are evaluated. Ten animals are included in each dose level group, and twenty animals in the untreated control group. The test compounds are prepared and aministered as in the P388/0 protocol. The day of death for each animal is recorded, the median identified for each group and the ratios of median survival time for treated (T)/control (C) groups are calculated. The criterion for activity is T/C×100≥140%.

Eimeria tenella = experiment: Antiprotozoal screening, Eimeria tenella (in vitro); type: cell-based; details: read-out: Result (screen code, inhibition); for inhibition at 5 µg/mL: 5 mg/L, in vitro
Excerpt: Antiprotozoal testing against Eimeria tenella was done using methods outlined in V. S. Latter and D. Wilson, Parasitology 79, 169 (1979).

[4] = test system: Brugia pahangi microfilaria; experiment: Screening against Brugia pahangi microfilaria (in vitro); type: cell-based
Excerpt: Anthelmintic testing against Brugia pahangi was done using methods outlined in D. A. Denham et al., Transactions of the Royal Society of Tropical Medicine and Hygiene 73, 673-676 (1979).

[5] = test system: Streptococcus pyogenes (CN10); experiment: Antibacterial testing, Streptococcus pyogenes, agar dilution assay; type: cell-based
Excerpt: as §3

B16 cells = experiment: Melanotic Melanoma B16 test; type: in vivo, B6C3-F1 mice; details: dosing as in P388/0 test, active if ≥125%
Excerpt: as §2
B6C3-F1 mice of the same sex, weighing 20+3 g, are used for this test. A suspension of B16 cells is prepared from a non-necrotic portion of solid tumor tissue obtained from a passage mouse. One gram of tumour is homogenized in 9 mL ice-cold Earle's salts solution and filtered through 1000 mesh screen to remove debris. 0.5 mL of the resulting brei is injected intraperitoneally into each animal. Dosing is carried out as in the P388/0 and L1210 tests. Days of death are recorded for a 60 day period, and T/C ratio calculated as in the P388/0 and L1210 tests. The criterion for activity is T/C×100≥125%.

Herpes simplex 1/vero = Herpes simplex 1/vero plaque inhibition screen; type: cell-based
Excerpt: Antiviral testing against Herpes simplex 1/vero was done using plaque inhibition methods as outlined in P. Collins and D. J. Bauer, Proc. N.Y. Acad. Sci. 284, 49 (1977) and by plaque reduction methods as outlined in P. Collins and D. J. Bauer, J. Antimicrobiol Chemotherapy 3, Supplement A, 73, (1977). The column headings labeled Score, Toxicity, and Zone of Inhibition refer to the plaque inhibition screen while the IC50 heading to the plaque reduction screen.

Compound | LD20 (LD20 in the P388/0 test) | MIC [1] [µg/mL] | MIC [2] [µg/mL] | MIC [3] [µg/mL] | LD50 (LD50 Tests) [mg/kg] | inhibition at 40 µg/mL (Trichomonas vaginalis) [%] | MIC [5] [µg/mL] | Score (Herpes simplex 1/vero) | also measured
2-((6-Bromo-1-pyrenylmethyl)amino)-2-methyl-1,3-propanediol hydrochloride and 2-((8-Bromo-1-pyrenylmethyl)amino)-2-methyl-1,3-propanediol hydrochloride [Example 17B] | 557 | – | – | – | – | – | – | – | T/C × 100% (Excluding 30 Day Survivors) (P388/0 tumor cells): +135%
CC(CO)(CO)NCc1ccc2ccc3cccc4ccc1c2c34 [Example 1A, 2-methyl-2-((1-pyrenylmethyl)amino)-1,3-propanediol hydrochloride] | 375 | ≤ 5 | 50 | 50 | 350 | 76 to 100 | – | – | T/C × 100% Excluding 30 day Survivors (L1210 cells): +129%
CC(CO)(CO)NCc1ccc2ccc3cccc4ccc1c2c34 [Example 1B, 2-methyl-2-((1-pyrenylmethyl)amino)-1,3-propanediol methanesulfonate] | – | – | – | – | – | – | – | – | T/C × 100% Excluding 60 day Survivors (Lewis Lung Carcinoma): 208%
CC(C)(CO)NCc1ccc2ccc3cccc4ccc1c2c34 [Example 2A, 2-methyl-2-((1-pyrenylmethyl)amino)propanol hydrochloride] | – | ≤ 5 | 10 | 10 | – | 51 to 75 | 10 | – | LD20 (LD20 in the P388/0 test; hydrochloride): 170; inhibition at 5 µg/mL (Eimeria tenella): 26 to 50%; MIC [4]: 3.1 µg/mL; inhibition at 3.1 µg/mL ([4]; 3.1 mg/L, read-out: Result (screen code, inhibition)): 76 to 100%
CCC(CO)(CO)NCc1ccc2ccc3cccc4ccc1c2c34 [Example 5A, 2-Ethyl-2-((1-pyrenylmethyl)amino)-1,3-propanediol hydrochloride] | 225 | 3 | 100 | 50 | 160 | 51 to 75 | 3 | – | T/C × 100% Excluding 60 day Survivors (B16 cells; 225 mg/kg): +159%
CCC(CO)NCc1ccc2ccc3cccc4ccc1c2c34 (stereo not shown) [Example 6, 2-((1-Pyrenylmethyl)amino)butanol hydrochloride] | 450 | 10 | – | 50 | 350 | 76 to 100 | – | -2 (26-50% inhibition) | –
OCC(CO)(CO)NCc1ccc2ccc3cccc4ccc1c2c34 [Example 10, 2-Hydroxymethyl-2-((1-pyrenylmethyl)amino)-1,3-propanediol hydrochloride] | 215 | > 50 | ≥ 50 | > 50 | 160 | – | 5 | – | inhibition at 0.37 µg/mL (Eimeria tenella): 76 to 100%; T/C × 100% Excluding 60 day Survivors (B16 cells; 150 mg/kg): +133%
CC(C)(O)CNCc1ccc2ccc3cccc4ccc1c2c34 [Example 12, 2-(((1-Pyrenylmethyl)amino)methyl)-2-propanol hydrochloride] | – | > 50 | – | > 50 | – | – | – | – | inhibition at 5 µg/mL (Eimeria tenella): 76 to 100%; inhibition at 12.5 µg/mL ([4]; 12.5 mg/L, read-out: Result (screen code, inhibition)): 26 to 50%
CCC(COC(C)=O)(COC(C)=O)NCc1ccc2ccc3cccc4ccc1c2c34 [Example 16, 2-Ethyl-2-((1-pyrenylmethyl)amino)-1,3-propanediol diacetate] | – | – | – | – | – | – | – | -4 (76-100% inhibition) | MTD (LD20 in the P388/0 test): 675 mg/kg
CC(=O)OCC(C)(COC(C)=O)NCc1ccc2ccc3cccc4ccc1c2c34 [Example 18, 2-methyl-2-(1-pyrenylmethyl)amino)-1,3-propanediol diacetate] | – | ≤ 10 | – | – | – | – | 30 | -3 (51-75% inhibition) | Zone of Inhibition (Herpes simplex 1/vero): 30; MTD (LD20 in the P388/0 test): 300 mg/kg
